Results as given in patent US20080194492A1, “Plant Extracts for the Treatment of Incresed Bone Resorption” (priority 2003, published 2008).
“Also recorded” adds a separate entry of the source.

Test system: osteoclasts of new-born rats
Experiment: osteoclast pit assay (in vitro resorption activity of osteoclasts on ivory slices)
Assay type: cell-based, rat
Conditions: for magnitude of the inhibition when PTH is added compared with without (in words): PTH 10^−8 M added to cultures; for inhibition of osteoclast resorption activity in vitro (in words): osteoclast pit assay, dose not given
Experimental: It will be appreciated that the osteoclast pit assay is a well established in vitro model of bone resorption and readily known to one skilled in the art. Briefly, medium containing a sample to be tested, e.g. 30 mg or less of freeze-dried hydrophilic fraction A per ml, is added to osteoclasts of new-born rats settled on ivory slices. After 24 hours of incubation, the tartrate-resistant acid phosphatase positive multi-nucleated cells, i.e. osteoclasts, are counted. Subsequently, the number of resorption pits is determined. […] For the analysis of statistical significance, the ratios of the treated groups±their respective SEMs are compared to the 95% confidence interval of the SEM of the negative control. […] The inhibitory effect on osteoclasts is assessed by counting the osteoclast resorption pits on the ivory slice. […] To assess in vitro the bone resorbing inhibitory activity, the osteoclast pit assay is used. Medium containing 30 mg or less of freeze-dried fraction per ml is added to osteoclasts of new-born rats settled on ivory slices. After 24 hours of incubation, the tartrate-resistant acid phosphatase positive multi-nucleated cells, i.e. osteoclasts, are counted. Subsequently, the number of resorption pits is determined. […] For the analysis of statistical significance, the ratios of the treated groups±their respective SEMs are compared to the 95% confidence interval of the SEM of the negative control. • a) TLC-Screening and Yields of the RP-MPLC Fractionations. Bioassay (in vitro assessment of osteoclast activity). Osteoclasts were isolated from femora and tibiae of 2-day-old rats and settled for 40 min onto 4×4 mm ivory slices used as the mineralized substrate. After washing off non-adherent cells, individual slices were transferred to 48-well tissue culture plates and incubated for 24 h at 37° C. in a 5% CO2/air atmosphere (14;15) in medium containing 10% fetal bovine serum (FBS) with or without the material to be tested. The concentration of bicarbonate in the MEM Earle's medium was reduced to 15 mM by addition of 12M HCl. In each experiment calcitonin (salmon calcitonin, Novartis Pharma, Basel, Switzerland) was added as positive control at the concentration of 10^-11 M or 10^-12 M. In one experiment parathyroid hormone (PTH; bovine 1-34, Bachem, Bubendorf, Switzerland) was added at the concentration of 10^-8 M, in order to stimulate bone resorption. For each material to be tested 8 slices were used, for the untreated control 2×8 slices were used. After fixation osteoclasts were stained for tartrate-resistant acid-phosphatase (TRAP) (kit 386-A, Sigma, Buchs, Switzerland) and were counted blinded as TRAP positive (TRAP+) multinucleated (more than 2 nuclei) cells (MNC). After removing the cells, the slices were sputter coated with gold and the resorption pits counted blinded in a process described in Vitté, C.; Fleisch, H.: Guenther, H. L. Bisphosphonates induce osteoblasts to secrete an inhibitor of osteoclast-mediated resorption. Endocrinology 1996, 137, 2324-2333. Osteoclastic resorption activity is calculated as the ratio: resorption pits/TRAP+MNC.

| Molecule | activity on osteoclast resorption (in words) (0.53 mg/mL, i.e. 1.7 mM GPCS) | Pits/TRAP+ cells ± SEM (0.53 mg/mL, neg. control 0.739 ± 0.138) | inhibition of osteoclast resorption activity (in words) (2 mM) | resorption activity of osteoclasts (in words) (2, 4 and 8 mM, with or without PTH 10^−8 M (FIG. 4)) | magnitude of the inhibition when PTH is added compared with without (in words) | minimal effective dose (cultures not stimulated with PTH) | minimal effective dose, graphical interpolation from FIG. 4 (cultures stimulated with PTH) | inhibition of osteoclast resorption activity in vitro (in words) | inhibition of osteoclast resorption activity in vitro (in words) (listed as Fraction A 1-4C) | inhibition of osteoclast resorption activity in vitro (in words) (listed as Fraction A1-4C) | inhibition of osteoclast resorption activity in vitro (in words) (listed as fraction A1-4C) | Pits/TRAP+ cells ± SEM (10^−12 M, 24 h, neg. control 0.489 ± 0.128) | Pits/TRAP+ cells ± SEM (10^−12 M, neg. control 0.739 ± 0.138) |
| --- | --- | --- | --- | --- | --- | --- | --- | --- | --- | --- | --- | --- | --- |
| C/C=C/[S+]([O-])C[C@H](NC(=O)CC[C@H](N)C(=O)O)C(=O)O (relative stereo) [A1-4C, γ-L-glutamyl-trans-S-1-propenyl-L-cysteine sulfoxide] | active | 0.325 ± 0.108 | not significant | inhibits the resorption activity of osteoclasts dose-dependently | somewhat smaller | around 2 mM | around 3 mM | only active fraction | inhibited osteoclast activity nearly as strong as fraction A 1-4 | inhibits osteoclast activity similar to fraction A1-4 | significantly (p<0.5) inhibit bone resorption; also recorded: inhibiting osteoclast activity | – | – |
| CT: salmon calcitonin, Novartis Pharma, positive control [reference compound] | – | – | – | – | somewhat smaller | – | – | – | – | – | – | 0.061 ± 0.063 | 0.116 ± 0.030 |
